According to PubChem BioAssay (NCI):
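All cell lines were grown in 96-well plates and treated with compound for 48 hours. Abbreviation: GI50, concentration required for 50% inhibition of growth. TGI is the concentration that stops growth completely.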

What was measured:
Assay in all cases: growth of human tumour cells (NCI), 48 h
[1] = test system: 786-0 renal
[2] = test system: A498 renal
[3] = test system: A549 NSCLC
[4] = test system: ACHN renal
[5] = test system: BT-549 breast
[6] = test system: CAKI-1 renal
[7] = test system: CCRF-CEM leukemia
[8] = test system: COLO 205 colon
[9] = test system: DU-145 prostate
[10] = test system: HCC-2998 colon
[11] = test system: HCT-116 colon
[12] = test system: HCT-15 colon
[13] = test system: HL-60(TB) leukemia
[14] = test system: HOP-62 NSCLC
[15] = test system: HOP-92 NSCLC
[16] = test system: HS 578T breast
[17] = test system: IGROV1 ovarian
[18] = test system: K-562 leukemia
[19] = test system: KM12 colon
[20] = test system: LOX IMVI melanoma
[21] = test system: M14 melanoma
[22] = test system: MALME-3M melanoma
[23] = test system: MCF7 breast
[24] = test system: MDA-MB-231 breast
[25] = test system: MDA-MB-435
[26] = test system: MOLT-4 leukemia
[27] = test system: NCI-H226 lung
[28] = test system: NCI-H23 lung
[29] = test system: NCI-H460 lung
[30] = test system: NCI-H522 lung
[31] = test system: NCI/ADR-RES ovarian
[32] = test system: OVCAR-3 ovarian
[33] = test system: OVCAR-5 ovarian
[34] = test system: OVCAR-8 ovarian
[35] = test system: PC-3 prostate
[36] = test system: RPMI-8226 leukemia
[37] = test system: RXF 393 renal
[38] = test system: SF-268 CNS
[39] = test system: SF-295 CNS
[40] = test system: SF-539 CNS
[41] = test system: SK-MEL-2 melanoma
[42] = test system: SK-MEL-28 melanoma
[43] = test system: SK-MEL-5 melanoma
[44] = test system: SK-OV-3 ovarian
[45] = test system: SN12C renal
[46] = test system: SNB-19 CNS
[47] = test system: SNB-75 CNS
[48] = test system: SR leukemia
[49] = test system: SW-620 colon
[50] = test system: T-47D breast
[51] = test system: TK-10 renal
[52] = test system: UACC-257 melanoma
[53] = test system: UACC-62 melanoma
[54] = test system: UO-31 renal

COc1ccc(C2CC(c3cccc(Nc4ccnc5cc(Cl)ccc45)c3)=NN2c2ccccc2)cc1 (stereo not drawn)
GI50 [1]: 3.95 µM
TGI [1]: > 100 µM
GI50 [2]: 2.87 µM
TGI [2]: 81.2 µM
GI50 [3]: 2 µM
TGI [3]: > 100 µM
GI50 [4]: 3.5 µM
TGI [4]: 33.2 µM
GI50 [5]: 7.42 µM
TGI [5]: 39.2 µM
GI50 [6]: 0.681 µM
TGI [6]: > 100 µM
GI50 [7]: 0.546 µM
TGI [7]: 37.9 µM
GI50 [8]: 1.43 µM
TGI [8]: 8.66 µM
GI50 [9]: 14 µM
TGI [9]: > 100 µM
GI50 [10]: 0.535 µM
TGI [10]: 11.5 µM
GI50 [11]: 1.12 µM
TGI [11]: 18.7 µM
GI50 [12]: 0.335 µM
TGI [12]: 14.7 µM
GI50 [13]: 0.282 µM
TGI [13]: 17.5 µM
GI50 [14]: 0.949 µM
TGI [14]: 21.3 µM
GI50 [15]: 3.93 µM
TGI [15]: 47.6 µM
GI50 [16]: 6.79 µM
TGI [16]: 73.2 µM
GI50 [17]: 11.6 µM
TGI [17]: > 100 µM
GI50 [18]: 0.492 µM
TGI [18]: 32.3 µM
GI50 [19]: 0.226 µM
TGI [19]: 19.6 µM
GI50 [20]: 0.338 µM
TGI [20]: 11.1 µM
GI50 [21]: 0.331 µM
TGI [21]: 15.4 µM
GI50 [22]: 10.7 µM
TGI [22]: 42.7 µM
GI50 [23]: 1.52 µM
TGI [23]: 27.4 µM
GI50 [24]: 1.31 µM
TGI [24]: 29.2 µM
GI50 [25]: 0.219 µM
TGI [25]: 2.92 µM
GI50 [26]: 0.432 µM
TGI [26]: 27.6 µM
GI50 [27]: 11.3 µM
TGI [27]: 63.8 µM
GI50 [28]: 8.78 µM
TGI [28]: 59.7 µM
GI50 [29]: 0.418 µM
TGI [29]: 12.2 µM
GI50 [30]: 0.952 µM
TGI [30]: 13.8 µM
GI50 [31]: 1.51 µM
TGI [31]: 26.4 µM
GI50 [32]: 3.2 µM
TGI [32]: > 100 µM
GI50 [33]: 11.8 µM
TGI [33]: 61.7 µM
GI50 [34]: 2.85 µM
TGI [34]: 38.8 µM
GI50 [35]: 0.453 µM
TGI [35]: 95.3 µM
GI50 [36]: 1.27 µM
TGI [36]: 22.8 µM
GI50 [37]: 8.91 µM
TGI [37]: 49.7 µM
GI50 [38]: 4.19 µM
TGI [38]: > 100 µM
GI50 [39]: 1.62 µM
TGI [39]: 16.4 µM
GI50 [40]: 1.15 µM
TGI [40]: 3.25 µM
GI50 [41]: 2.07 µM
TGI [41]: 10.4 µM
GI50 [42]: 4.41 µM
TGI [42]: 32.5 µM
GI50 [43]: 1.46 µM
TGI [43]: 4.76 µM
GI50 [44]: 9.62 µM
TGI [44]: 76.5 µM
GI50 [45]: 7.19 µM
TGI [45]: > 100 µM
GI50 [46]: 6.9 µM
TGI [46]: > 100 µM
GI50 [47]: 3.34 µM
TGI [47]: 49.1 µM
GI50 [48]: 1.17 µM
TGI [48]: 8.52 µM
GI50 [49]: 0.277 µM
TGI [49]: 14.4 µM
GI50 [50]: 0.171 µM
TGI [50]: 20 µM
GI50 [51]: 3.76 µM
TGI [51]: 97.2 µM
GI50 [52]: 1.36 µM
TGI [52]: 31.4 µM
GI50 [53]: 0.051 µM
TGI [53]: 11.7 µM
GI50 [54]: 0.478 µM
TGI [54]: 21.6 µM
